From patent publication US20250145631A1, “HETEROCYCLIC COMPOUND ACTING ON G12D MUTANT KRAS PROTEIN” (Astellas Pharma Inc., priority 2022, published 2025)

Experiments:
Type in all cases: cell-based
[1] = tested on: human G12D mutant KRAS-positive pancreatic cancer line AsPC-1; test: Non-anchorage-dependent cell growth inhibitory effect, spheroid 3D culture (Test Example 3); conditions: ASPC1, 144 h, AsPC-1 spheroid 3D culture, 6 days, CellTiter Glo 2.0, read-out: IC50 (non-anchorage-dependent cell growth inhibition)
Method: The non-anchorage-dependent cell growth inhibitory effect of test compounds was evaluated by spheroid 3D cell culture.
AsPC-1 cells were seeded on low-cell-adhesive round bottom 384-well plates (PrimeSurface: from Sumitomo Bakelite) at 20 μL (or […])/well to give 5×10^2 cells per well. As for the cell culture conditions, RPMI 1640 medium containing 10% fetal bovine serum was used in the presence of 5% CO2 at 37° C.
The next day, the test compounds (10 points or 6 points having final concentrations in the range of 10 μM to 0.3 nM) and DMSO, which was the solvent for the test compounds, as a negative control were diluted 500-fold (or 100-fold) with a fresh medium and were added at 20 μL (or […]) per well. After culturing in the presence of 5% C02 at 37° C. for 6 days, CellTiter Glo 2.0 (from Promega) was added at 20 μL per well. After stirring with a plate mixer (from FINEPCR) at normal temperature for 1 hour, the luminescent signals were measured with ARVO X3 (from PerkinElmer).
(§1) With the signaling value in treatment with DMSO taken as 100% and with the signaling value in the medium alone without cells taken as 0%, the 50% inhibitory concentration values (IC50) were calculated by Sigmoid-Emax nonlinear regression analysis. The calculated 50% inhibition represents the inhibition at the highest concentration evaluated (10 μM) for a compound that exceeds the concentration in the evaluation range.
(§2) In the tables presented below, Ex represents Example No. The IC50 of Ex. 13, Ex. 15, and Ex. 16 were calculated using the molecular weights as tetrahydrochloride, and the IC50 of Ex. 14 was calculated using the molecular weight as trihydrochloride.

[2] = tested on: phosphorylation of ERK (Thr202/Tyr204); test: ERK phosphorylation inhibitory effect by Cell ELISA in AsPC-1 cells (Test Example 2); conditions: Homo sapiens, ASPC1, overnight treatment, Cell ELISA, read-out: IC50 (ERK phosphorylation inhibition)
Method: The ERK phosphorylation inhibitory effect of test compounds was evaluated by measuring phosphorylation of threonine 202 (Thr202) and tyrosine 204 (Tyr204) of ERK located downstream of the KRAS signal by Cell ELISA.
AsPC-1 cells were seeded on 384-well plates at 20 µL/well to give 2.0×10^4 cells per well. As for the cell culture conditions, RPMI 1640 medium containing 10% fetal bovine serum was used in the presence of 5% CO2 at 37° C.
The next day, the test compounds (10 points having final concentrations in the range of 10 μM to 0.3 nM), trametinib (MEK inhibitor) of a final concentration of […] as positive control and DMSO, which was the solvent for the test compounds, as negative control were diluted 500-fold with a fresh medium and were added at 20 μL per well. The cells were cultured overnight. After culturing, 30% glyoxal solution (40% glyoxal [from Nacalai Tesque]was diluted with PBS) was quickly added at 30 μL per well, and the plates were allowed to stand for 120 minutes at room temperature to thus immobilize the cells. Then, the plates were centrifuged to remove the supernatant (using a centrifugal dehydrator machine, the supernatant was removed by the same method hereinafter), and 0.10% Triton X-100-containing PBS was added at 20 μL per well. After allowing to stand for 10 minutes at room temperature, the supernatant was removed, and the same operation was further repeated. Next, 0.5% SDS-containing PBS was added at 20 μL per well, and after allowing to stand at room temperature for 30 minutes, the supernatant was removed. Subsequently, blocking solution (Intercept Blocking Buffer) was added at 20 μL per well, and the plates were allowed to stand for 1 hour at room temperature. The supernatant was removed, and an ERK (Thr202/Tyr204) phosphorylation antibody (Phospho-p44/42 MAPK (Erk 1/2) (Thr202/Tyr204) (D13.14.4E) XP Rabbit mAb; from Cell Signaling Technology) diluted 2,500-fold with blocking solution was added at 15 μL per well as a primary antibody. The plates were allowed to stand at 4° C. overnight.
The next day, the supernatant was removed. 0.05% Tween-20 (from Thermo Fisher Scientific)-containing PBS was added at 50 μL per well, and the supernatant was removed to thus wash each well. The washing was performed three times in total. After washing, Goat anti-Rabbit IgG H&L (IRDye 800CW) diluted 1,000-fold with blocking solution was added at 15 μL per well as a secondary antibody, and the plates were allowed to stand for 1 hour at room temperature. The supernatant was removed, and each well was washed three times with 0.05% Tween-20-containing PBS in the same manner as after the primary antibody reaction. After removing the supernatant, the plates were dried with air at room temperature for 3 hours or more, and the 800-nm fluorescent signals were measured with Aerius.
as §1, with “value at the time of addition of” for “value in treatment with”, “value at” for “value in”, “the time of addition of […] trametinib” for “the medium alone without cells”
as §2

[3] = target: T1, KRAS G12D (Homo sapiens, UniProt P01116, G12D); test: KRAS degradation activity by Cell ELISA in AsPC-1 cells (Test Example 1); conditions: Cell ELISA; for Dmax: ASPC1, overnight treatment, read-out: Dmax (degradation rate at the concentration showing highest degradation); for DC50: overnight treatment, read-out: DC50 (50% degradation concentration of KRAS)
T1 construct: host or cells: AsPC-1 (human pancreatic cancer line)
T1 sequence (P01116 1-188 isoform P01116-2 G12D): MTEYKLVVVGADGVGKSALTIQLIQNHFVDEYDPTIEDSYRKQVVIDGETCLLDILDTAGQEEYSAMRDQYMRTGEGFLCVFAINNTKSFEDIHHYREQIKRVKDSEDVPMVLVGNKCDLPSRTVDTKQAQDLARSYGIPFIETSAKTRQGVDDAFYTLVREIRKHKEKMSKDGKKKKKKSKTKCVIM
Method: The KRAS degradation activity of test compounds was evaluated by measuring the expression levels of KRAS G12D by Cell ELISA.
AsPC-1 cells were seeded at 20 μL per well on 384-well plates (from Greiner bio-one) to give 2.0×10^4 cells per well. As for the cell culture conditions, RPMI 1640 (from Sigma-Aldrich) medium containing 10% fetal bovine serum (from Cytiva) was used in the presence of 5% CO2 at 37° C.
The next day, the test compounds (10 points having final concentrations in the range of 10 μM to 0.3 nM) and DMSO (from FUJIFILM Wako Pure Chemical Corporation), which was the solvent for the test compounds, as a negative control were diluted 500-fold with a fresh medium and were added at 20 μL per well. The cells were cultured overnight. The next day, the culture supernatant was removed, and 4% paraformaldehyde phosphate buffer (from FUJIFILM Wako Pure Chemical Corporation) was added at 20 μL per well. The plates were allowed to stand for 30 minutes at room temperature to thus immobilize the cells. Then, the supernatant was removed, and 0.1% Triton X-100 (from Amersham Biosciences)-containing Phosphate buffered saline (PBS; from FUJIFILM Wako Pure Chemical Corporation) was added at 20 μL per well. After allowing to stand for 10 minutes at room temperature, the supernatant was removed. PBS was added at 25 μL per well, and the supernatant was removed to thus wash each well. The washing was performed twice in total. Next, the supernatant was removed, and 0.5% sodium dodecyl sulfate (SDS; from Invitrogen)-containing PBS was added at 20 μL per well. After allowing to stand at room temperature for 10 minutes, the supernatant was removed by a centrifugal operation (using a centrifugal dehydrator machine, the supernatant was removed by the same method hereinafter). PBS was added at 25 μL per well, and the supernatant was removed to thus wash each well. The washing was performed twice in total. The supernatant was removed, and blocking solution (Intercept Blocking Buffer; from Li—COR Biosciences) was added at 20 μL per well. After allowing to stand for 30 minutes at room temperature, the supernatant was removed, and a solution obtained by diluting anti-β-actin antibody (Anti-beta Actin antibody [mAbcam 8226]-Loading Control; from abcam) 1,000-fold with blocking solution and a solution obtained by diluting anti-Ras (G12D Mutant Specific) antibody (Ras (G12D Mutant Specific) (D8H7) Rabbit mAb #14429; from Cell Signaling Technology) and anti-β-actin antibody (from abcam) 1,000-fold with blocking solution were respectively added to positive control wells and the other wells at 15 μL per well as a primary antibody. The plates were allowed to stand overnight at 4° C.
The next day, the supernatant was removed. PBS was added at 25 μL per well, and the supernatant was removed to thus wash each well. The washing was performed twice in total. The supernatant was removed, and a solution obtained by diluting Donkey anti-Mouse IgG H&L (IRDye 680RD) (from Li—COR Biosciences) and Goat anti-Rabbit IgG H&L (IRDye 800CW) (from Li—COR Biosciences) 1,000-fold with blocking solution was added at 15 μL per well as a secondary antibody. A solution obtained by diluting Donkey anti-Mouse IgG H&L (IRDye 680RD) (from Li—COR Biosciences) 1,000-fold with blocking solution was added to a positive control well as a secondary antibody. After allowing to stand for 1 hour at room temperature, the supernatant was removed. PBS was added at […], and the supernatant was removed to thus wash each well. The washing was performed twice in total. After removing the supernatant, the plates were dried with air at room temperature for 2 hours or more, and the 700 nm and 800 nm fluorescent signals were measured with Aerius (from Li—COR Biosciences). […]

| Compound | IC50 [1] [µM] | IC50 [2] [µM] | Dmax [3] [%] | DC50 [3] [µM] |
| --- | --- | --- | --- | --- |
| CO[C@@H](C)COc1nc(O[C@@H]2CCNC2)c2cc(C3CC3)c(-c3c(C)c(F)cc4[nH]ncc34)c(OCc3ccc(C(=O)N4CCN(Cc5ccc6c(c5)n(C)c(=O)n6C5CCC(=O)NC5=O)C[C@@H]4C)cc3)c2n1 (some centres unmarked) [Example 39] | 0.052 | 0.03 | 83 | 0.022 |
| CO[C@@H](C)COc1nc(N(C)[C@@H]2CCNC2)c2cc(C3CC3)c(-c3c(C)c(F)cc4[nH]ncc34)c(OCc3ccc(C(=O)N4CCN(Cc5ccc6c(c5)n(C)c(=O)n6C5CCC(=O)NC5=O)C[C@@H]4C)cc3)c2n1 (some centres unmarked) [Example 35] | 1.11 | 1.51 | 48 | 3.67 |
| CO[C@@H](C)COc1nc(N(C)[C@H]2CCNC2)c2cc(C3CC3)c(-c3c(C)c(F)cc4[nH]ncc34)c(OCc3ccc(C(=O)N4CCN(Cc5ccc6c(c5)n(C)c(=O)n6C5CCC(=O)NC5=O)C[C@@H]4C)cc3)c2n1 (some centres unmarked) [Example 18] | 0.217 | 0.25 | 77 | 0.085 |
| Cc1c(F)cc2[nH]ncc2c1-c1c(C2CC2)cc2c(O[C@H]3CCNC3)cc(OC[C@@H]3CCCO3)nc2c1OCc1ccc(C(=O)N2CCN(Cc3ccc4c(c3)n(C)c(=O)n4C3CCC(=O)NC3=O)C[C@@H]2C)cc1 (some centres unmarked) [Example 31] | 0.147 | 0.158 | 71 | 0.115 |
| Cc1c(F)cc2[nH]ncc2c1-c1c(C2CC2)cc2c(N3C[C@@H]4C[C@H]3CN4)nc(OC[C@H]3CCCO3)nc2c1OCc1ccc(C(=O)N2CCN(Cc3ccc4c(c3)n(C)c(=O)n4C3CCC(=O)NC3=O)C[C@@H]2C)cc1 (some centres unmarked) [Example 37] | 0.064 | 0.041 | 87 | 0.03 |

Continued, values first:

| IC50 [1] [µM] | IC50 [2] [µM] | Dmax [3] [%] | DC50 [3] [µM] | Compound |
| --- | --- | --- | --- | --- |
| 0.223 | 0.231 | 78 | 0.297 | Cc1c(F)cc2[nH]ncc2c1-c1c(C2CC2)cc2c(N3C[C@@H]4C[C@H]3CN4)nc(OC3CCOCC3)nc2c1OCc1ccc(C(=O)N2CCN(Cc3ccc4c(N5CCC(=O)NC5=O)nn(C)c4n3)C[C@@H]2C)cc1 (atropisomer, axis not shown) [Example 24] |
| 0.852 | 2.28 | 52 | 4.96 | Cc1c(N2CCC(=O)NC2=O)ccnc1OC1CCN(C(=O)c2ccc(COc3c(-c4c(C)c(F)cc5[nH]ncc45)c(C4CC4)cc4c(N5C[C@@H]6C[C@H]5CN6)nc(OC5CCOCC5)nc34)cc2)CC1 (atropisomer, axis not shown) [Example 21] |
| 1.44 | 1.28 | 71 | 1.48 | Cc1c(F)cc2[nH]ncc2c1-c1c(C2CC2)cc2c(N3C[C@@H]4C[C@H]3CN4)nc(OC3CCOCC3)nc2c1OCc1ccc(C(=O)N2CCC(CNc3cccc4c3C(=O)N(C3CCC(=O)NC3=O)C4=O)CC2)cc1 (some centres unmarked) [Example 30] |
| 0.142 | 0.059 | 84 | 0.058 | Cc1c(F)cc2[nH]ncc2c1-c1c(C2CC2)cc2c(N3C[C@@H]4C[C@H]3CN4)nc(OC3CCOCC3)nc2c1OCc1ccc(C(=O)N2CCN(Cc3ccc4c(n3)n(C)c(=O)n4C3CCC(=O)NC3=O)CC2)cc1 (some centres unmarked) [Example 11] |
| 0.684 | 1.34 | 52 | 4.27 | Cc1nc(OC2CCN(C(=O)c3ccc(COc4c(-c5c(C)c(F)cc6[nH]ncc56)c(C5CC5)cc5c(N6C[C@@H]7C[C@H]6CN7)nc(OC6CCOCC6)nc45)cc3)CC2)ccc1N1CCC(=O)NC1=O (atropisomer, axis not shown) [Example 17] |
| 0.155 | 0.09 | 78 | 0.052 | Cc1c(F)cc2[nH]ncc2c1-c1c(C2CC2)cc2c(N3C[C@@H]4C[C@H]3CN4)nc(O[C@H]3CCOC3)nc2c1OCc1ccc(C(=O)N2CCN(Cc3ccc4c(c3)n(C)c(=O)n4C3CCC(=O)NC3=O)C[C@@H]2C)cc1 (some centres unmarked) [Example 41] |
